Experimental data taken from patent US20220202783A1, “Use Of ADAM9 Inhibitor As Immunomodulator” (China Medical University, priority 2019, published 2022).

How the values were obtained:
[1] = test system: human colon cancer cells SW620; test: cytokine RNA expression by RT-qPCR, SW620; assay type: cell-based; conditions: 12.5 μM, 24 hours
Procedure: (§1) We further analyzed whether the treatment of the ADAM9 inhibitor can stimulate tumor cells to secrete cytokines to activate the anti-tumor immunity of the ADAM9 inhibitor. In the experiment, human colon cancer cells SW620 and human pancreatic cancer cells PANC-1 were treated with 12.5 μM of the compound SW1, and human esophageal cancer cells C[…] were treated with 5 μM of the compound SW1. After 24 hours, the cells were collected and the RNA expression levels of CXCL10, CXCL11, CXC3CL1 and IFNB were detected by RT-qPCR. CXCL10, CXCL11 and […] are cytokines that promote the immune response of CD8^+ T cells, and IFNB is a cytokine with anti-cancer effects. Please refer to FIGS. 10A, 10B and 10C, which show the analysis results of the ADAM9 inhibitor stimulated tumor cells to secrete cytokines.

[2] = test system: control Bm7 lung cancer cells; test: colony-forming assay, Bm7; assay type: cell-based; conditions: 20 μM, control Bm7 lung cancer cells (shGFP)
Procedure: (§2) To further test the planting efficiency of tumor cells treated with the compound SW1 and the compound SW2, in the experiment, control Bm7 lung cancer cells (treated with shGFP) and ADAM9 KO Bm7 lung cancer cells (treated with shADAM9) were treated with 20 μM of the compound SW1 or the compound SW2 respectively, and TC1-wild-type (WT) lung cancer cells and TC1-ADAM9 KO lung cancer cells were treated with 10 μM of the compound SW1 or the compound SW2 respectively. Then colony-forming assay was used to confirm the planting efficiency of each test group. Please refer to FIGS. 2D and 2E, wherein mock represents the tumor cell lines without treatment of the compound SW1 or the compound SW2. Representative images of colony-forming assay are shown at the bottom, and data are means±SD of 6 separate wells.

TC1-WT lung cancer cells [3] = test: colony-forming assay, TC1; assay type: cell-based; conditions: 10 μM
Procedure: as §2

leukocytes = test: anoikis in anchorage-free culture, leukocytes; assay type: cell-based; conditions: Leukocyte, read-out: IC50 value for anoikis (anchorage-free induced apoptosis)
Procedure: To ensure the compound SW1 and the compound SW2 in blocking anoikis-resistance of cancer cells, the IC50 value (unit is μM) of the compound SW1 and the compound SW2 for anoikis (anchorage-free induced apoptosis) in lung cancer brain metastatic cell line-Bm7brmx2, breast cancer brain metastatic cell line-MDA-231 brm and leukocytes in anchorage-free culture conditions were determined.

[4] = test system: TC1 subcutaneous lung tumor; test: co-treatment of ADAM9 inhibitor and checkpoint inhibitor, CD8+ T cells to TReg ratio in tumors; assay type: in vivo, mice; conditions: co-treated with anti-PDL1 antibody; vs vehicle, SW1 alone or anti-PDL1 antibody alone
Procedure: To further analyze whether the ADAM9 inhibitor and the checkpoint inhibitor have a synergistic effect, in the experiment, TC1 subcutaneous lung tumor mice were treated alone with the ADAM9 inhibitor (the compound SW1), the checkpoint inhibitor (anti-PDL1 antibody) or co-treated with the ADAM9 inhibitor (the compound SW1) and the checkpoint inhibitor (anti-PDL1 antibody), and the ratio of CD8^+ T cells and regulatory T cells (TReg) in tumors of TC1 subcutaneous lung tumor mice was analyzed. The experiment also included a control group treated with vehicle (DMSO).

[5] = test system: human pancreatic cancer cells PANC-1; test: cytokine RNA expression by RT-qPCR, PANC-1; assay type: cell-based; conditions: 12.5 μM, 24 hours
Procedure: as §1

[6] = test system: human esophageal cancer cells CE146T; test: cytokine RNA expression by RT-qPCR, CE146T; assay type: cell-based; conditions: 5 μM, 24 hours
Procedure: as §1

Pan18-GFP-Luc = test: cytotoxicity on pancreatic cancer cells, Pan18-GFP-Luc; assay type: cell-based; conditions: Pancreatic cancer cell
Procedure: (§3) In addition, the IC50 values (unit is μM) of the compound SW1 and the compound SW2 on pancreatic cancer cells were measured in the experiment.

Panc-1 = test: cytotoxicity on pancreatic cancer cells, Panc-1; assay type: cell-based; conditions: Homo sapiens
Procedure: as §3

[7] = test system: lung cancer cells (Bm7brmx2-2nd); test: cytotoxicity assay in Bm7brmx2-2nd cells; assay type: cell-based; parameters: key to effect of inhibiting tumor cell growth: “+” represents that the compound has the effect of inhibiting tumor cell growth
Procedure: Please refer to FIG. 1A, FIG. 1B and Table 2, which show the analysis results of the compound of Formula (I) inhibiting ADAM9 activity. In FIG. 1A, Bm7 lung cancer cells were treated with the derivatives of the compound 6X-0310, and then cultured under anchorage-free culture condition. The expressions of ADAM9 and CDCP1 in Bm7 lung cancer cells were detected by Western blot, in which EF1α is an internal control, and mock represents Bm7 lung cancer cells without treatment. […] In the experiment, the compounds of Formula (I) of Example 1 to Example 32 were further performed cytotoxicity assay to measure the IC50 value of the compounds of Formula (I) of the present disclosure in lung cancer cell lines.

TC1-WT lung cancer cells [8] = test: subcutaneous lung tumor mouse model; assay type: in vivo, C57BL/6 mice; conditions: 10 mg/kg subcutaneous injection once a day, Day 15 to Day 24, vs DMSO control
Procedure: In order to further evaluate whether the treatment of ADAM9 inhibitors will give the same results as the ADAM9 gene knockout, TC1-WT lung cancer cells were injected subcutaneously into C57BL/6 mice with normal immunity to establish a subcutaneous lung tumor mouse model, and the ADAM9 inhibitor (the compound SW1, 10 mg/kg) was treated by subcutaneous injection. From Day 15 to Day 24, the compound SW1 was injected once a day for […]. The tumor volume was observed on Day 12, Day 20 and Day 27, respectively. […] The control group was injected with DMSO as a control for the treatment of the ADAM9 inhibitor.

PE10 WBC = test: cytotoxicity assay in PE10 WBC; assay type: cell-based; parameters: key to effect of inhibiting tumor cell growth: “+” represents that the compound has the effect of inhibiting tumor cell growth

SMILES	RNA expression levels of CXCL10, CXCL11, CXC3CL1 and IFNB [1]	planting efficiency, colony-forming assay [2]	planting efficiency, colony-forming assay (TC1-WT lung cancer cells [3])	IC50 (leukocytes)	ratio of CD8+ T cells to regulatory T cells (TReg) in tumors [4]	RNA expression levels of CXCL10, CXCL11, CXC3CL1 and IFNB [5]	RNA expression levels of CXCL10, CXCL11, CXC3CL1 and IFNB [6]	IC50 (Pan18-GFP-Luc)	IC50 (Panc-1)	IC50 [7]	effect of inhibiting tumor cell growth [7]	tumor growth (tumor volume) (TC1-WT lung cancer cells [8])	IC50 (PE10 WBC)	effect of inhibiting tumor cell growth (PE10 WBC)
O=C1c2ccccc2C(=O)N1CCc1csc(Nc2nc(CCN3C(=O)c4ccccc4C3=O)cs2)n1 [SW1]	increase the expressions of CXCL10, CXCL11, CXC3CL1 and IFNB	greatly reduce the planting efficiency	greatly reduce the planting efficiency	> 200 µM	increased significantly	increase the expressions of CXCL10, CXCL11, CXC3CL1 and IFNB	increase the expressions of CXCL10, CXCL11, CXC3CL1 and IFNB	0.3 µM	424 µM	43.5 µM	+	reduces tumor growth	14.5 mM	+
O=C(Nc1nc(CCN2C(=O)c3ccccc3C2=O)cs1)c1cc2ccccc2s1 [SW2]	–	greatly reduce the planting efficiency	greatly reduce the planting efficiency	76 µM	–	–	–	112 µM	34.2 µM	45.1 µM	+	–	0.0764 mM	+
